From patent US20260234188A1, “CHEMOKINE-BINDING PEPTIDES” (Oxford University Innovation Limited, priority 2022, published 2026)
Ends that are not written are not given here. Peptide text beside a SMILES is read from it.

How the values were obtained:
Conditions in all cases: HD2 mutant peptides 10 μM, chemokine at EC80
CXCL9 = molecular target: T1, CXCL9 (Homo sapiens, UniProt Q07325); assay: CXCL9-induced activated T-cell migration, transwell assay; type: cell-based
T1 construct: purchased Peprotech
T1 sequence (Q07325 23-125): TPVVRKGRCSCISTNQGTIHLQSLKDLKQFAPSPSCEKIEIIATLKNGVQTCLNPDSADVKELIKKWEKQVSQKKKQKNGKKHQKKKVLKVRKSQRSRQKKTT
Method: FIG. 2. […] BK1.2 is described in (Darlot, 2020). […] Chemokines used are indicated by the name, followed in parenthesis by the supplier code (P in supplier code indicates Peprotech). […] All experiments were performed at EC80 doses of indicated chemokine. Data are shown as box-whisker plots of three technical and three biological replicates. Statistically significant differences (compared to control, indicated by #), using Dunnett's test with correction for multiple comparisons, are indicated by asterisks: ****=P≤0.0001, ***=P≤0.001, **=P≤0.01, *=P≤0.05.
Briefly, cell migration assays use THP1 cells (human monocyte) and primary human buffy coat white cells (consisting of neutrophil granulocytes, monocytes, and lymphocytes), and activated T-cells. THP1 cells and primary monocytes respond to CCL2, CCL3, CCL5, CCL8 and CXCL4, granulocytes to CXCL1 and CXCL8, activated T-cells to CXCL9/10/11. Assays are performed in 96-well Boyden chambers, and migrated cells counted and characterized using and ATTUNE Flow Cytometer as described. Triplicate assays are performed at the EC80 dose of each chemokine at 10 μM peptide concentration.
(§1) The J:CXCR1 cell line was generated by transfecting Jurkat cells by electroporation with PvuI-linearized plasmid D1398 and selecting with blasticidin (Sigma-Aldrich, Cat #203350, […]). […] J:CXCR1 cells were cultured in RPMI-1640 media (Gibco), supplemented with 10% FBS and 5 mM L-Glutamine with blasticidin. For J:CXCR1 migration assays, 300,000 cells/well were added to the top chamber of a 3 μm Transwell insert (Corning) in 50 μL of migration media (RPMI-1640, 0.5% FBS, 4 mM L-Glutamine, 0.05% DMSO). The bottom chamber contained 150 μL of chemokine, with or without peptide. Cells were migrated at 37° C. in 5% CO2 for 4 hours. The plate was incubated on a shaking platform for 10 minutes, 800 rpm, at 37° C., and 150 μL from the bottom of the plate transferred into a U-bottom plate containing 50 μL of migration media. Cell counts were determined by Attune NxT Flow Cytometer Plate Reader (ThermoFisher), based on cell size parameters FSC-H/SSC-H. Experiments were performed in 3 technical and 3 biological replicates. THP-1 migration assays were carried out using methods known in the art. Activated T-cell assays were carried out using methods known in the art, with the following modifications in the isolation process. Peripheral blood cells were obtained from leucocyte cones (NHS Blood Transfusion Services), following which, T-cells were isolated using two rounds of human CD8+ T-cell isolation kit (480011, BioLegend). At day 10 after activation, T-cells were frozen at 20 E6 cells/ml in TexMACS medium supplemented with 10% DMSO (D2650, Sigma) in liquid nitrogen. Prior to use, activated T-cells were recovered for 24 hours in TexMACs medium at 0.3 E6 cells/ml and incubated at 37° C. in 5% CO2. Chemokine sources are described in Supplementary information Table 3. Statistical significances between control experimental groups was evaluated using Dunnett's test. IC50 experiments were performed at the EC80 dose of chemokine. EC80 was calculated by fitting a chemokine dose-response curve with 3 parameters (fixing the top to 100%). IC50 was calculated by fitting an inhibitor response curve with 4 parameters.

CCL21 = molecular target: T2, CCL21 (Homo sapiens, UniProt O00585); assay: CCL21-induced cell migration assay; type: cell-based
T2 sequence (O00585 24-134): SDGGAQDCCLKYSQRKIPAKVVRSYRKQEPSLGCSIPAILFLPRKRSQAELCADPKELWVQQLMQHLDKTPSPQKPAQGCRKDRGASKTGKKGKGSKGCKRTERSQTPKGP
Method: (§2) FIGS. 24 and 25. Effect of exemplar mutant HD2 peptides on chemotaxis. Box-whisker plots showing the effect of the exemplar mutant HD2 peptides on cell migration induced by indicated human chemokines. All experiments were performed as at least three technical and between one to three biological replicates, and individual data points are indicated. […] Chemokine and cell type names are indicated. HD2SCR is a scrambled version of HD2 used as negative control. All peptides were at 10 μM final concentration and chemokines at EC80 doses. Statistically significant differences (compared to control, coloured blue), using Dunnett's test with correction for multiple comparisons, are indicated by asterisks: ****=P≤0.0001, ***=P≤0.001, **=P≤0.01, *=P≤0.05.
as §1
(§3) Migration assays using THP1, activated T-cell (ATC) and J:CXCR1 (Jurkat cells stably transfected with CXCR1 receptor) were performed as described previously. IC50 experiments were performed at the EC80 dose of chemokine. EC80 was calculated by fitting a chemokine dose-response curve with 3 parameters (fixing the top to 100%). IC50 was calculated by fitting an inhibitor response curve with 4 parameters. R-packages used were ggupset_0.3.0, DescTools_0.99.44, and drc_3.0-1.

CXCL6 = molecular target: T3, CXCL6 (Homo sapiens, UniProt P80162); assay: cell-based
T3 sequence (P80162 38-114): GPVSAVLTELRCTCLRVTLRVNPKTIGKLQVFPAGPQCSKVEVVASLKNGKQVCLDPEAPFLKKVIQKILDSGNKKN
Method: FIG. 11. […] Technical replicates are shown as individual data points. […] The response curve (solid blue line) and its 95% confidence interval (grey ribbon) were calculated using a 4-parameter log-logistic plot.
as §1, §3

CXCL5 = molecular target: T4, CXCL5 (Homo sapiens, UniProt P42830); assay: CXCL5-induced cell migration assay; type: cell-based
T4 sequence (P42830 37-114): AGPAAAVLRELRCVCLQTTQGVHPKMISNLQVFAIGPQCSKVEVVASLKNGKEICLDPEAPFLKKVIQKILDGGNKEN
Method: as §2
The J:CXCR1 cell line was generated by transfecting Jurkat cells by electroporation with PvuI-linearized plasmid D1398 and selecting with blasticidin (Sigma-Aldrich, Cat #203350, […]). […] J:CXCR1 cells were cultured in RPMI-1640 media (Gibco), supplemented with 10% FBS and 5 mM L-Glutamine with blasticidin. For J:CXCR1 migration assays, 300,000 cells/well were added to the top chamber of a 3 μm Transwell insert (Corning) in 50 μL of migration media (RPMI-1640, 0.5% FBS, 4 mM L-Glutamine, 0.05% DMSO). […] Cell counts were determined by Attune NxT Flow Cytometer Plate Reader (ThermoFisher), based on cell size parameters FSC-H/SSC-H. Experiments were performed in 3 technical and 3 biological replicates. […] Statistical significances between control experimental groups was evaluated using Dunnett's test. […] EC80 was calculated by fitting a chemokine dose-response curve with 3 parameters (fixing the top to 100%). IC50 was calculated by fitting an inhibitor response curve with 4 parameters.
as §3, with “IC50 experiments were performed at the EC80 dose of chemokine.” left out, “R-packages used were ggupset_0.3.0, DescTools_0.99.44, and drc_3.0-1.” left out

Measured: chemotaxis compared with the parental HD2 peptide

EEDDWTAYAPLTCYFT-NH2 [HD2_W5, EEDDWTAYAPLTCYFT]
significant reduction in chemotaxis: CXCL9 | CCL21

CC(C)C[C@H](NC(=O)[C@@H]1CCCN1C(=O)[C@H](C)NC(=O)[C@H](Cc1ccc(O)cc1)NC(=O)[C@H](C)NC(=O)[C@@H](NC(=O)[C@H](Cc1ccc(O)cc1)NC(=O)[C@H](CC(=O)O)NC(=O)[C@H](CC(=O)O)NC(=O)[C@H](CCC(=O)O)NC(=O)[C@@H](N)CCC(=O)O)[C@@H](C)O)C(=O)N[C@H](C(=O)N[C@@H](CS)C(=O)N[C@@H](Cc1ccc(O)cc1)C(=O)N[C@@H](Cc1ccccc1)C(=O)N[C@@H](CS)C(N)=O)[C@@H](C)O [HD2_C16, EEDDYTAYAPLTCYFC] (H-EEDDYTAYAPLTCYFC-NH2; N-terminus assumed)
significant reduction in chemotaxis: all assays above

EEDDYTAYWPLTCYFT [A9W]
significant reduction in chemotaxis: all assays above

EEDDYWAYAPLTCYFT [HD2_W6]
significant reduction in chemotaxis: all assays above
